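Growth conditions: 96-well plates. Treatment: test compound, 48 hours, 5 concentrations. Analysis: linear interpolation between bracketing concentrations; unreached endpoints set to highest concentration. GI50 is the concentration that inhibits growth by half.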 The source made the active and inactive calls. No stated cut-off is given here; in the data, active = GI50 up to about 1.1 µM and inactive = higher.
How the values were obtained:
Test in all cases: inhibition of tumour cell growth, NCI panel, 48 h
A498 = test system: A498
UACC-62 = test system: UACC-62
786-0 = test system: 786-0
HCT-116 = test system: HCT-116
MDA-MB-435 = test system: MDA-MB-435
NCI-H522 = test system: NCI-H522
NCI-H226 = test system: NCI-H226
NCI-H460 = test system: NCI-H460
HOP-62 = test system: HOP-62
UO-31 = test system: UO-31
SN12C = test system: SN12C
T47D = test system: T47D
OVCAR-3 = test system: OVCAR-3
SR = test system: SR
BT-549 = test system: BT-549
CAKI-1 = test system: CAKI-1
IGROV-1 = test system: IGROV-1
MOLT-4 = test system: MOLT-4
TK-10 = test system: TK-10
OVCAR-5 = test system: OVCAR-5

Row | Structure (SMILES) | GI50 (A498) | GI50 (UACC-62) | GI50 (786-0) | GI50 (HCT-116) | GI50 (MDA-MB-435) | GI50 (NCI-H522) | GI50 (NCI-H226) | GI50 (NCI-H460) | GI50 (HOP-62) | GI50 (UO-31) | GI50 (SN12C) | GI50 (T47D) | GI50 (OVCAR-3) | GI50 (SR) | GI50 (BT-549) | GI50 (CAKI-1) | GI50 (IGROV-1) | GI50 (MOLT-4) | GI50 (TK-10) | GI50 (OVCAR-5)
1 | COc1cccc(NC(=O)CC(=O)N2N=C(C)C(/N=N\c3ccc(S(=O)(=O)c4ccc(/N=N/C5C(=O)N(C(=O)CC(=O)Nc6cccc(OC)c6)N=C5C)cc4)cc3)C2=O)c1 (stereo not given) | > 100 µM (inactive) | > 100 µM (inactive) | > 100 µM (inactive) | > 100 µM (inactive) | > 100 µM (inactive) | > 100 µM (inactive) | > 100 µM (inactive) | > 100 µM (inactive) | > 100 µM (inactive) | > 100 µM (inactive) | > 100 µM (inactive) | > 100 µM (inactive) | > 100 µM (inactive) | > 100 µM (inactive) | > 100 µM (inactive) | > 100 µM (inactive) | > 100 µM (inactive) | > 100 µM (inactive) | > 100 µM (inactive) | > 100 µM (inactive)
2 | O=c1[nH]c(=O)n(C2CC(O)C(CO)O2)cc1I (stereo not given) | > 100 µM (inactive) | > 100 µM (inactive) | > 100 µM (inactive) | > 100 µM (inactive) | > 100 µM (inactive) | > 100 µM (inactive) | > 100 µM (inactive) | > 60.7 µM (inactive) | > 100 µM (inactive) | > 100 µM (inactive) | 89.9 µM (inactive) | > 100 µM (inactive) | > 100 µM (inactive) | 38.7 µM (inactive) | > 100 µM (inactive) | 63.8 µM (inactive) | > 100 µM (inactive) | 75.7 µM (inactive) | > 100 µM (inactive) | > 100 µM (inactive)
3 | C=C1C(C2(C)C(OC(C)=O)CC(=O)OC(C)(COC(C)=O)C2CC(=O)OC)C(OC=O)C(OC(=O)C(O)C(C)CC)C2(C)C(c3ccoc3)CC(=O)C12O (stereo not given) | 4.52 µM (inactive) | > 30.7 µM (inactive) | 5.98 µM (inactive) | 1.58 µM (inactive) | 6.61 µM (inactive) | 0.83 µM (active) | 16.7 µM (inactive) | 2.65 µM (inactive) | 7.43 µM (inactive) | 3.77 µM (inactive) | 10.8 µM (inactive) | > 57.7 µM (inactive) | > 42.7 µM (inactive) | 5.36 µM (inactive) | 4.33 µM (inactive) | 3.27 µM (inactive) | 2.52 µM (inactive) | > 100 µM (inactive) | 17.4 µM (inactive) | > 100 µM (inactive)
4 | COc1cc(/C=C2\N=C(c3ccccc3)N(/N=C3\C(=O)Nc4ccccc43)C2=O)cc(OC)c1OC | > 100 µM (inactive) | > 100 µM (inactive) | > 100 µM (inactive) | > 100 µM (inactive) | 39.1 µM (inactive) | 27.8 µM (inactive) | 41.7 µM (inactive) | > 100 µM (inactive) | > 100 µM (inactive) | > 100 µM (inactive) | > 100 µM (inactive) | > 100 µM (inactive) | 24.9 µM (inactive) | 38.6 µM (inactive) | > 100 µM (inactive) | > 100 µM (inactive) | > 100 µM (inactive) | 25.4 µM (inactive) | > 100 µM (inactive) | > 100 µM (inactive)
5 | NCCSS(=O)(=O)CCN | > 100 µM (inactive) | > 100 µM (inactive) | > 100 µM (inactive) | > 100 µM (inactive) | > 100 µM (inactive) | > 100 µM (inactive) | > 100 µM (inactive) | > 100 µM (inactive) | > 100 µM (inactive) | > 100 µM (inactive) | > 100 µM (inactive) | > 100 µM (inactive) | > 100 µM (inactive) | > 100 µM (inactive) | > 100 µM (inactive) | > 100 µM (inactive) | > 100 µM (inactive) | > 100 µM (inactive) | > 100 µM (inactive) | > 100 µM (inactive)
6 | O=c1c2cc3c(=O)n4c(cc(-c5ccccc5)c5cc(Cl)ccc54)nc3cc2nc2cc(-c3ccccc3)c3cc(Cl)ccc3n12 | > 100 µM (inactive) | > 100 µM (inactive) | 64.1 µM (inactive) | > 100 µM (inactive) | > 100 µM (inactive) | > 100 µM (inactive) | > 100 µM (inactive) | > 100 µM (inactive) | 34.9 µM (inactive) | 37.8 µM (inactive) | > 100 µM (inactive) | > 100 µM (inactive) | > 100 µM (inactive) | > 100 µM (inactive) | > 100 µM (inactive) | > 100 µM (inactive) | > 100 µM (inactive) | > 100 µM (inactive) | > 100 µM (inactive) | > 100 µM (inactive)
7 | Cc1ccc(C2=NN=C3C(c4ccccc4)=Nc4ccccc4N3C2)cc1 | > 53.1 µM (inactive) | 15.7 µM (inactive) | 6.56 µM (inactive) | 5.28 µM (inactive) | 16.3 µM (inactive) | 2.92 µM (inactive) | 12.9 µM (inactive) | 3.56 µM (inactive) | 9.98 µM (inactive) | 4.1 µM (inactive) | 15.5 µM (inactive) | 27.2 µM (inactive) | 2.61 µM (inactive) | 1.56 µM (inactive) | 20.6 µM (inactive) | 19.7 µM (inactive) | 13.1 µM (inactive) | 1.34 µM (inactive) | 0.348 µM (active) | 18 µM (inactive)
8 | COc1ccc2c(c1)c(=O)c1c(NCCCN(C)CCCNc3ccc4c(=O)n(CCN(C)C)c(=O)n5c6ccc(OC)cc6c(=O)c3c45)ccc3c(=O)n(CCN(C)C)c(=O)n2c31 | 0.305 µM (active) | 0.305 µM (active) | < 0.01 µM (active) | < 0.01 µM (active) | < 0.0149 µM (active) | < 0.0193 µM (active) | < 0.01 µM (active) | < 0.01 µM (active) | < 0.036 µM (active) | < 0.0181 µM (active) | < 0.01 µM (active) | 0.619 µM (active) | 0.138 µM (active) | < 0.01 µM (active) | 0.259 µM (active) | < 0.015 µM (active) | < 0.01 µM (active) | < 0.01 µM (active) | 0.119 µM (active) | 0.29 µM (active)
9 | CCn1c(=O)ccc2ccc(N(CCO)CCO)nc21 | > 100 µM (inactive) | > 100 µM (inactive) | > 100 µM (inactive) | > 100 µM (inactive) | > 100 µM (inactive) | > 100 µM (inactive) | > 100 µM (inactive) | > 100 µM (inactive) | > 100 µM (inactive) | > 100 µM (inactive) | > 100 µM (inactive) | > 100 µM (inactive) | > 100 µM (inactive) | > 100 µM (inactive) | > 100 µM (inactive) | > 100 µM (inactive) | > 100 µM (inactive) | 97.7 µM (inactive) | > 100 µM (inactive) | > 100 µM (inactive)
10 | COc1ccc2nc3ccc(OC)cc3c([S+]([O-])Cc3ccccc3)c2c1 (stereo not given) | 17 µM (inactive) | 14.8 µM (inactive) | 2.21 µM (inactive) | 2.45 µM (inactive) | 12.8 µM (inactive) | 1.65 µM (inactive) | 19.4 µM (inactive) | 25.5 µM (inactive) | 18 µM (inactive) | 6.87 µM (inactive) | 7.62 µM (inactive) | 2.11 µM (inactive) | 13.1 µM (inactive) | 3.04 µM (inactive) | 14.3 µM (inactive) | 12.8 µM (inactive) | 7.96 µM (inactive) | 2.79 µM (inactive) | 7.71 µM (inactive) | 15.7 µM (inactive)
11 | COC1(C)Cc2c(c(C)c(O)c3c2C(=O)C=C(Cl)C3=O)O1 (stereo not given) | > 100 µM (inactive) | 35.8 µM (inactive) | > 100 µM (inactive) | 44.5 µM (inactive) | > 100 µM (inactive) | 16.9 µM (inactive) | > 100 µM (inactive) | > 100 µM (inactive) | > 100 µM (inactive) | > 87.3 µM (inactive) | > 65.6 µM (inactive) | 13.4 µM (inactive) | 44.2 µM (inactive) | 3.89 µM (inactive) | > 100 µM (inactive) | 20.4 µM (inactive) | 55.5 µM (inactive) | 7.5 µM (inactive) | 22.7 µM (inactive) | > 100 µM (inactive)

— ChEMBL document CHEMBL1201862, “PubChem BioAssay data set” (2004)
